# Patent US10711247B2, “Method for reducing pluripotent stem cells, method for producing cell population having reduced pluripotent stem cells” (TOKYO WOMEN'S MEDICAL UNIVERSITY, priority 2015, dated 2020)
# Read-outs that look alike come from different tables or passages of the source.
# How the values were obtained:
# feeder-less iPS cells [1] = system: feeder-less iPS cells
# Experimental: (§1) FIGS. 8A and 8B indicate the results of culturing iPS cells cultured on laminin E8 fragments following the addition of capsaicin. Vehicle-1 represents the control used in the experiment in which capsaicin was added at 2×10^−4 M, Vehicle-2 represents the control used in the experiment in which capsaicin was added at 1×10^−4 M, and Vehicle-3 represents the control used in the experiment in which capsaicin was added at 1×10^−5 M. The upper panels in FIG. 8A indicates phase-contrast images and the bars represent 100 μm. The middle panels indicate Hoechst staining images and the bars represent 200 μm. The lower panels indicate montage images of 36 fields (6×6) of the Hoechst staining images. FIG. 8B is a graph indicating the numbers of cells in 36 fields under each condition.
# (§2) Human iPS cell lines 253G1 and 2017 were purchased from RIKEN (Ibaraki, Japan). Transfer of human iPS cell line 1231A3 was received from Kyoto University.
# feeder-less iPS cells [2] = test: feeder-less iPS cells cultured with TRPV-1 agonists, number of cells in 36 fields (Hoechst staining); conditions: feeder-less iPS cells on laminin E8 fragments
# Experimental: as §1, §2
# [3] = system: iPS cell-derived cardiomyocytes; test: iPS cell-derived cardiomyocytes cultured in medium containing capsaicin; format: cell-based, human
# Experimental: Prior to seeding the cells, the surface of a temperature-responsive culture dish (Upcell®, CellSeed Inc., Tokyo, Japan) or cell culture dish (Corning, Inc., Corning, N.Y., USA) was coated with fetal bovine serum (FBS) for 2 hours. After the iPS cells were induced to differentiate into cardiomyocytes, the cells were detached using 0.05% trypsin/EDTA and the cell aggregates were broken up into single cells using a strainer (BD Biosciences, Inc., San Jose, Calif., USA), followed by seeding in a culture dish at 2.1×10^5 cells/cm^2 using DMEM medium (Sigma-Aldrich Corp., St. Louis, Mo., USA) containing 10% FBS and culturing in a humidified atmosphere at 37° C. and 5% CO2. In several of the experiments, the cells were treated with puromycin (Sigma-Aldrich Corp., 1.5 μg/mL) for 1 day to purify the iPS cell-derived cardiomyocytes (strain 201B7, αMHC-puro/Rex1-neo).
smiles,measurement,setting,value
"CCCCCCCC/C=C\CCCCCCCC(=O)NCCc1ccc(O)c(O)c1 [OLDA, N-oleoyldopamine]",cytotoxic activity against iPS cells,feeder-less iPS cells [1],demonstrated cytotoxic activity against iPS cells
COc1cc(CNC(=O)CCCC/C=C/C(C)C)ccc1O [capsaicin],number of cells,"feeder-less iPS cells [2]; capsaicin 2×10^−4 M, 1×10^−4 M, 1×10^−5 M vs vehicle (FIGS. 8A and 8B)",significantly decreased concentration-dependently
same,independent pulsation of the cardiomyocytes,[3]; capsaicin 200 μM and 100 μM (concentrations toxic to iPS cells),maintained
same,numbers of Nkx2.5-positive cells,"[3]; capsaicin 200 μM and 100 μM, compared with vehicle (FIGS. 8C and 8D)",no changes
CCCCC/C=C\C/C=C\C/C=C\C/C=C\CCCC(=O)NCc1ccc(O)c(OC)c1 [arvanil],cytotoxic activity against iPS cells,feeder-less iPS cells [2]; FIGS. 9 and 10,demonstrated cytotoxic activity against iPS cells
